# Where a name gives a salt, the structure may show the parent alone.
# Key:
# [1] = system: Escherichia coli ATCC 25922; assay: Standard EPI assay: clarithromycin MIC with EPI; type: cell-based; conditions: clarithromycin as antibiotic, E. coli ATCC 25922
# Method: (§1) MIC assays were conducted in accordance with Clinical and Laboratory Standards Institute (CLSI) guidelines for broth microdilution.
# (§2) The EPI assay for the purposes of these studies represents a MIC assay in which the MIC of the antibiotic against the bacteria is tested in the presence of an experimental efflux pump inhibitor (EPI). The highest concentration of the EPI present in the assay typically is ½ of the intrinsic MIC of the compound. If the intrinsic MIC of the EPI is greater than 100 μg/mL, the EPI assay was tested with 50 μg/mL. Using serial dilutions of the EPI, its enhancement of antibiotic activity was then evaluated. The relative EPI activity was decided by comparing the MIC of the antibiotic in the presence of the EPI compound with the intrinsic MIC of the antibiotic alone. For the evaluation of the efficacy of an EPI against bacteria that were pre-exposed to an antibiotic, the inoculum of bacteria that used was developed from a bacterial culture isolated as a single colony following exposure at ½ the MIIC of the antibiotic (so as to induce efflux pump expression), was to be used in combination with the EPI.
# (§3) In our standard EPI assay, the MIC of the test antibiotic is determined in the absence and presence of sub-inhibitory concentrations of the EPI. Initially, the sub-inhibitory concentration used was ½×MIC of the EPI. […] The MIC of levofloxacin against P. aeruginosa ATCC 27853 in the absence of EPI is 1 μg/mL. […] Similar methodology was employed to examine the synergy with Escherichia coli ATCC 25922 in the presence of varied concentrations of these EPIs using clarithromycin as the antibiotic.
# [2] = system: Pseudomonas aeruginosa ATCC 27853; assay: Standard EPI assay: levofloxacin MIC with EPI; type: cell-based; conditions: levofloxacin as antibiotic, P. aeruginosa ATCC 27853
# Method: as §1, §2, §3
smiles,measurement,setting,value
"Cl.Cl.NCCC[C@H](N)CNC(=O)c1nc2ccc(-c3ccc(N)cc3)cc2[nH]1 [Example 25, (S)-6-(4-aminophenyl)-N-(2,5-diaminopentyl)-1H-benzo[d]imidazole-2-carboxamide Hydrogen Chloride Salt]",Enhanced Activity in E. coli (fold enhancement of antibiotic activity / EPI concentration),[1]; EPI at 50 (μg),2×/50 μg
"COc1ccc(-c2ccc3nc(C(=O)NC[C@@H](N)CCN)[nH]c3c2)cc1.Cl.Cl [Example 15, (S)-4-(5-(4-methoxyphenyl)-1H-benzo[d]imidazole-2-carboxamido)butane-1,3-diaminium Dihydrochloride]",Enhanced Activity in E. coli (fold enhancement of antibiotic activity / EPI concentration),[1]; EPI at 50 (μg),2×/50
same,Enhanced Activity in P. aeruginosa (fold enhancement of antibiotic activity / EPI concentration),[2]; EPI at 12.5 (μg),2×/12.5
"Cl.Cl.NCCC[C@H](N)CNC(=O)c1nc2cc(-c3ccc(F)cc3)c(-c3ccc(F)cc3)cc2n1Cc1ccccc1 [Example 31, (S)-1-benzyl-N-(2,5-diaminopentyl)-5,6-bis(4-fluorophenyl)-1H-benzo[d]imidazole-2-carboxamide Hydrogen Chloride Salt]",Enhanced Activity in E. coli (fold enhancement of antibiotic activity / EPI concentration),[1]; EPI at 6.25 (μg),8×/6.25 μg
"Cl.Cl.NCCC(N)CNC(=O)c1nc2cc(-c3ccc(F)cc3)ccc2[nH]1 (stereo in doubt) [Example 12, (S)-4-(5-(4-fluorophenyl)-1H-benzo[d]imidazole-2-carboxamido) butane-1,3-diaminium Chloride]",Enhanced Activity in E. coli (fold enhancement of antibiotic activity / EPI concentration),[1]; EPI at 50 (μg),8×/50
same,Enhanced Activity in P. aeruginosa (fold enhancement of antibiotic activity / EPI concentration),[2]; EPI at 12.5 (μg),4×/12.5
"Cn1c(C(=O)NC[C@@H](N)CCCN)nc2cc(-c3ccc(F)cc3)ccc21 [Example 5, (S)—N-(2,5-diaminopentyl)-5-(4-fluorophenyl)-1-methyl-1H-benzo[d]imidazole-2-carboxamide Dihydrochloride]",Enhanced Activity in E. coli (fold enhancement of antibiotic activity / EPI concentration),[1]; EPI at 50 (μg),64×/50
"Cl.Cl.N=C(N)NCCC[C@H](N)CNC(=O)c1nc2cc(-c3ccc(F)cc3)ccc2[nH]1 [Example 14, (S)-5-((amino(iminio)methyl)amino)-1-(5-(4-fluorophenyl)-1H-benzo[d]imidazole-2-carboxamido) pentan-2-aminium Chloride]",Enhanced Activity in E. coli (fold enhancement of antibiotic activity / EPI concentration),[1]; EPI at 50 (μg),2×/50
same,Enhanced Activity in P. aeruginosa (fold enhancement of antibiotic activity / EPI concentration),[2]; EPI at 12.5 (μg),4×/12.5
"CC(C)(N)C1CN[C@H](CNC(=O)c2nc3ccc(-c4ccc(F)cc4)cc3[nH]2)C1 (stereo partly drawn) [Example 11, N-(((2S)-4-(2-aminopropan-2-yl)pyrrolidin-2-yl)methyl)-6-(4-fluorophenyl)-1H-benzo[d]imidazole-2-carboxamide Dihydrochloride]",Enhanced Activity in P. aeruginosa (fold enhancement of antibiotic activity / EPI concentration),[2]; EPI at 12.5 (μg),2×/12.5
"COc1ccc(-c2ccc3[nH]c(C(=O)NC[C@@H](N)CCCN)nc3c2)cc1 [Example 8, (S)—N-(2,5-diaminopentyl)-5-(4-methoxyphenyl)-1H-benzo[d]imidazole-2-carboxamide Dihydrochloride]",Enhanced Activity in E. coli (fold enhancement of antibiotic activity / EPI concentration),[1]; EPI at 50 (μg),2×/50
same,Enhanced Activity in P. aeruginosa (fold enhancement of antibiotic activity / EPI concentration),[2]; EPI at 12.5 (μg),2×/12.5
"Cn1c(C(=O)NC[C@@H](N)CCCN)nc2cc(-c3ccc(F)cc3)cc(C(F)(F)F)c21 [Example 4, (S)—N-(2,5-diaminopentyl)-5-(4-fluorophenyl)-1-methyl-7-(trifluoromethyl)-1H-benzo[d]imidazole-2-carboxamide Dihydrochloride]",Enhanced Activity in E. coli (fold enhancement of antibiotic activity / EPI concentration),[1]; EPI at 50 (μg),512×/50
same,Enhanced Activity in P. aeruginosa (fold enhancement of antibiotic activity / EPI concentration),[2]; EPI at 12.5 (μg),8×/12.5
"NCCC[C@H](N)c1nc2cc(-c3ccc(F)cc3)ccc2[nH]1 [Example 9, (S)-1-(5-(4-fluorophenyl)-1H-benzo[d]imidazol-2-yl)butane-1,4-diamine Dihydrochloride]",Enhanced Activity in E. coli (fold enhancement of antibiotic activity / EPI concentration),[1]; EPI at 50 (μg),256×/50
same,Enhanced Activity in P. aeruginosa (fold enhancement of antibiotic activity / EPI concentration),[2]; EPI at 25 (μg),1×/25
"Cl.Cl.Cn1c(C(=O)NC[C@@H](N)CCCN)nc2cc(-c3ccc(F)cc3)c(-c3ccc(F)cc3)cc21 [Example 30, (S)—N-(2,5-diaminopentyl)-5,6-bis(4-fluorophenyl)-1-methyl-1H-benzo[d]imidazole-2-carboxamidehydrogen Chloride Salt]",Enhanced Activity in E. coli (fold enhancement of antibiotic activity / EPI concentration),[1]; EPI at 6.25 (μg),512×/6.25 μg
"NCCC[C@H](N)CNC(=O)Cc1nc2ccc(-c3ccc(F)cc3)cc2[nH]1 [Example 10, (S)—N-(2,5-diaminopentyl)-2-(6-(4-fluorophenyl)-1H-benzo[d]imidazol-2-yl)acetamide Dihydrochloride]",Enhanced Activity in E. coli (fold enhancement of antibiotic activity / EPI concentration),[1]; EPI at 50 (μg),1×/50
"NCCC[C@@H](N)CNC(=O)c1nc2cc(-c3ccc(F)cc3)ccc2[nH]1 [Example 18, (R)—N-(2,5-diaminopentyl)-5-(4-fluorophenyl)-1H-benzo[d]imidazole-2-carboxamide Dihydrochloride]",Enhanced Activity in E. coli (fold enhancement of antibiotic activity / EPI concentration),[1]; EPI at 6.25 (μg),2×/6.25
"CC(C)C(N)CC[C@H](N)CNC(=O)c1nc2cc(-c3ccc(F)cc3)ccc2[nH]1 (stereo partly drawn) [Example 16, N-((2S)-2,5-diamino-6-methylheptyl)-5-(4-fluorophenyl)-1H-benzo[d]imidazole-2-carboxamide Dihydrochloride]",Enhanced Activity in E. coli (fold enhancement of antibiotic activity / EPI concentration),[1]; EPI at 6.25 (μg),4×/6.25
"NCCC[C@H](N)CNC(=O)c1nc2cc(-c3ccc(F)cc3)c(-c3ccc(F)cc3)cc2[nH]1 [Example 1, (S)—N-(2,5-diaminopentyl)-5,6-bis(4-fluorophenyl)-1H-benzo[d]imidazole-2-carboxamide Dihydrochloride]",Enhanced Activity in E. coli (fold enhancement of antibiotic activity / EPI concentration),[1]; EPI at 6.25 (μg),512×/6.25
"NCCC[C@H](N)CNC(=O)c1nc2cc(Br)ccc2[nH]1 [Example 23, (S)-5-bromo-N-(2,5-diaminopentyl)-1H-benzo[d]imidazole-2-carboxamide Hydrogen Chloride Salt]",Enhanced Activity in E. coli (fold enhancement of antibiotic activity / EPI concentration),[1]; EPI at 50 (μg),2×/50 μg
"NCCC[C@H](N)CNC(=O)c1nc2cc(-c3ccc(F)cc3)ccc2[nH]1 [Example 17, (S)—N-(2,5-diaminopentyl)-5-(4-fluorophenyl)-1H-benzo[d]imidazole-2-carboxamide Dihydrochloride]",Enhanced Activity in E. coli (fold enhancement of antibiotic activity / EPI concentration),[1]; EPI at 50 (μg),256×/50
"N#Cc1cccc(-c2ccc3[nH]c(C(=O)NC[C@@H](N)CCCN)nc3c2)c1 [Example 7, (S)-5-(3-cyanophenyl)-N-(2,5-diaminopentyl)-1H-benzo[d]imidazole-2-carboxamide Dihydrochloride]",Enhanced Activity in P. aeruginosa (fold enhancement of antibiotic activity / EPI concentration),[2]; EPI at 12.5 (μg),4×/12.5
"Cl.Cl.NC[C@H](N)CNC(=O)c1nc2ccc(-c3ccc(F)cc3)cc2[nH]1 [Example 13, (S)-3-(5-(4-fluorophenyl)-1H-benzo[d]imidazole-2-carboxamido) propane-1,2-diaminium Dihydrochloride]",Enhanced Activity in P. aeruginosa (fold enhancement of antibiotic activity / EPI concentration),[2]; EPI at 25 (μg),4×/25
"NCCC[C@H](N)CNC(=O)c1nc2cc(-c3ccc(F)cc3)cc(-c3ccc(F)cc3)c2[nH]1 [Example 2, (S)—N-(2,5-diaminopentyl)-5,7-bis(4-fluorophenyl)-1H-benzo[d]imidazole-2-carboxamide Dihydrochloride]",Enhanced Activity in P. aeruginosa (fold enhancement of antibiotic activity / EPI concentration),[2]; EPI at 12.5 (μg),1×/12.5
"NC[C@@H]1CN[C@H](CNC(=O)c2nc3cc(-c4ccc(F)cc4)ccc3[nH]2)C1 [Example 21, N-(((2S,4R)-4-(aminomethyl)pyrrolidin-2-yl)methyl)-5-(4-fluorophenyl)-1H-benzo[d]imidazole-2-carboxamide Dihydrochloride]",Enhanced Activity in E. coli (fold enhancement of antibiotic activity / EPI concentration),[1]; EPI at 50 (μg),256×/50
same,Enhanced Activity in P. aeruginosa (fold enhancement of antibiotic activity / EPI concentration),[2]; EPI at 25 (μg),8×/25

# Source: patent US11180459B2, “Bacterial efflux pump inhibitors” (RUTGERS, THE STATE UNIVERSITY OF NEW JERSEY, priority 2017, dated 2021)
